Results published in patent US11382882B2 (priority 2010, dated 2022).
Entries after “also recorded” stand apart in the source; their conditions may differ.

Columns and labels:
[1] = system: phenol-soluble modulin-a (psma) gene expression; experiment: phenol-soluble modulin-a (psma) gene expression in MRSA strain USA300 (FIG. 4); type: cell-based, Staphylococcus aureus
RNAIII gene expression = RNAIII gene expression in MRSA strain USA300 (FIG. 7); type: cell-based, Staphylococcus aureus
AgrA gene expression = AgrA gene expression in MRSA strain USA300 (FIG. 5); type: cell-based, Staphylococcus aureus
MRSA strain USA300 = experiment: microbe, parasite or virus in culture; details: Staphylococcus aureus, 6 h; for hemolysis at 1 µg/mL: read-out: ELISA α-hemolysin inhibition 1 μg/mL; for hemolysis at 10 µg/mL: read-out: ELISA α-hemolysin inhibition 10 μg/mL
AgrC gene expression = AgrC gene expression in MRSA strain USA300 (FIG. 6); type: cell-based, Staphylococcus aureus
[2] = system: α-hemolysin gene expression; type: cell-based, Staphylococcus aureus
hla transcription = hla transcription by qRT-PCR (FIG. 9A); details: 6 h, versus DMSO; for transcription of hla (qRT-PCR, in words): 10 and 50 μg/ml, 37° C.
Method: (§1) The effect of the compounds VII, X, XII, and XV on the transcription of hla and RNAIII was measured by qRT-PCR. S. aureus USA300 was incubated at 37° C. for 6 h in the presence of 0, 10, or 50 μg/ml of the compounds. The cultures were harvested, and total RNA was isolated using the RiboPure—bacterial RNA isolation kit (Ambion) with additional DNase I treatment. RNA yield and purity were assessed by measuring the ratio of UV absorbance at 260 and 280 nm, and the integrity of the RNA was assessed on a 1% denaturing agarose gel. High integrity RNA had two clear bands without smearing, indicating no fragmentation of 23S and 16S rRNA.
(§2) Real-time RT-PCR reactions were conducted using a SYBR—green mix (Bio-Rad). The data were analyzed using the ΔΔC2 and are represented as log2 of the treated sample/control sample (DMSO only).

RNAIII transcription = RNAIII transcription by qRT-PCR (FIG. 9B); details: 10 or 50 μg/ml; 37° C., 6 h; versus DMSO
Method: as §1, §2

Method for Streptococcus pyogenes: During the first phase of in vitro testing the concentration of the compounds was kept constant at 100 mg/L in 2% DMSO.

Row | Compound | phenol-soluble modulin-a (psma) gene expression [1] | RNAIII gene expression (RNAIII gene expression) | AgrA gene expression (AgrA gene expression) | rabbit blood hemolysis inhibition in Streptococcus pyogenes (in words) (Streptococcus pyogenes) | hemolysis at 1 µg/mL (MRSA strain USA300) | hemolysis at 10 µg/mL (MRSA strain USA300) | AgrC gene expression (AgrC gene expression) | α-hemolysin gene expression [2] | transcription of hla (qRT-PCR, in words) (hla transcription) | reduction of hla expression (hla transcription; 50 μg/mL) | RNAIII expression (qRT-PCR, in words) (RNAIII transcription)
1 | O=C(O)c1cccc(-c2ccccc2)c1O [XV] | inhibit | inhibit | inhibit | active | 49.4 ± 4.6% | 53 ± 5.9% | inhibit | inhibit |  |  | 
2 | O=C(c1ccccc1)c1ccc(O)cc1O [XIV] |  |  |  |  |  | 26.7% |  |  |  |  | 
3 | O=C(O)c1c(F)c(F)cc2ccccc12 [III] |  |  |  |  | 20.8 ± 3.5% | 28.3 ± 3.4% |  |  |  |  | 
4 | COc1cc(O)c(C(=O)c2ccccc2)cc1S(=O)(=O)O [IX] |  |  |  | active |  | 41.9 ± 8.2% |  |  |  |  | 
5 | O=C(/C=C/c1ccc2c(c1)OCO2)c1ccccc(=O)c1O [IV] |  |  |  |  | 40.2 ± 5.2% | 73.6 ± 2.2% |  |  |  |  | 
6 | O=C(O)c1cc(-c2cccc(F)c2)ccc1O [XIII] |  |  |  |  |  | 35.6 ± 12.5% |  |  |  |  | 
7 | O=C(O)c1ccc(Oc2ccc(F)cc2)cc1 [XII] |  |  |  |  |  | 29.1 ± 11% |  |  | reduced |  | 
8 | O=C(O)c1ccc(Oc2ccc(Cl)cc2)cc1 [XI] |  |  |  |  |  | 36.3 ± 8.2% |  |  |  |  | 
9 | O=C(O)c1ccc(-c2ccc(F)cc2)cc1 [XVI] | inhibit | inhibit | inhibit | active | 0% | 68.8 ± 11.3% | inhibit | inhibit | reduced |  | 
10 | O=C(O)c1c(O)c(O)cc2ccccc12 [II] | inhibit | inhibit | inhibit | active | 21.3 ± 5.2% | 76 ± 1.2% | inhibit | inhibit |  |  | 
11 | O=C(O)c1ccc2cc(F)ccc2c1 [VIII] |  |  |  |  |  | 56.3 ± 1.7% |  |  |  |  | 
12 | O=C1Nc2cccc3cc(O)cc1c23 [I] |  |  |  |  | 28 ± 4.4% | 65 ± 2.5% |  |  |  |  | 
13 | O=C(O)c1cc(-c2ccc(F)cc2F)ccc1O [X, diflunisal, reference compound] | inhibit | inhibit | inhibit | active | 33 ± 3.6% | 62.3 ± 1.8% | inhibit | inhibit | reduced | ~3000 fold | significant reduction; also recorded: reduced
14 | O=C(O)c1ccc(-c2ccc(O)c(F)c2)cc1 [VII] | inhibit | inhibit | inhibit | active | 31.3 ± 9% | 61 ± 14.8% | inhibit | inhibit | reduced |  | 
15 | COc1cc(C(=O)N/N=C/c2cccc3ccccc23)ccc1O [V] | inhibit | inhibit | inhibit | active | 23 ± 1.3% | 88.4 ± 1.5% | inhibit | inhibit |  |  | 
16 | CCc1cc(C(=O)COc2ccccc2)c(O)cc1O [VI] |  |  | inhibit | active | 55.2 ± 5.8% | 76.3 ± 11.2% |  | inhibit |  |  | 
